Experimental data published in US8465963B2, “Grass endophyte enhanced attributes” (priority 2005, dated 2013).

What was measured:
[1] = system: Neotyphodium endophytes in perennial ryegrass; details: fungicide soak; cited from earlier work
[2] = system: Neotyphodium endophytes in tall fescue; details: fungicide soak; cited from earlier work
[3] = system: endophytes (AR502, AR542 and AR584); experiment: Trial 1 field trial: effect of fungicides on viable endophytes, means over endophytes; details: means of all other treatments
Description: The pH of the solution is 7.5.

[4] = system: ryegrass (Lolium perenne) seed infected with Neotyphodium endophyte; details: prochloraze 1 g/kg; triticonazole 5 and 10 g/kg; cited from earlier work

## COC(=O)NC(=S)Nc1ccccc1NC(=S)NC(=O)OC [Thiophanate-methyl]
[1]
  effect of fungicide on endophyte: little effect on endophyte
[2]
  effect of fungicide on endophyte: no effect on endophyte

## O=CNC(N1CCN(C(NC=O)C(Cl)(Cl)Cl)CC1)C(Cl)(Cl)Cl (stereo not drawn) [Triforine]
[1]
  effect of fungicide on endophyte: effective in some perennial ryegrass plants
[2]
  effect of fungicide on endophyte: effective in tall fescue

## CCCCNC(=O)n1c(NC(=O)OC)nc2ccccc21 [benomyl]
[1]
  effect of fungicide on endophyte: effective in killing endophyte
[2]
  effect of fungicide on endophyte: effective in killing endophyte

## Fc1ccc([C@]2(Cn3cncn3)O[C@H]2c2ccccc2Cl)cc1 [epiconazole]
[3]
  level of viable endophyte: most significantly reducing viable endophyte levels

## CCCN(CCOc1c(Cl)cc(Cl)cc1Cl)C(=O)n1ccnc1 [prochloraze]
[4]
  seed germination: effected

## CC1(C)CCC(=Cc2ccc(Cl)cc2)C1(O)Cn1cncn1 (stereo not drawn) [triticonazole]
[4]
  seed germination: effected
